Test systems include OVCAR-5 ovarian; SK-OV-3 ovarian; SF-268 CNS; EKVX NSCLC; MDA-MB-231 breast; IGROV1 ovarian; HCT-15 colon; KM12 colon.
Holding throughout (experiment): DTP human tumour cell line panel, 48 h

SMILES strings stand for the structures.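 The compound was tested at five concentrations on cells cultured in 96-well plates, with a 48-hour exposure period. Definition used: TGI = concentration required for complete inhibition of growth.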

Broadly, the TGI is the concentration giving total growth inhibition. Read a low TGI as greater sensitivity of the cells. Regarding `O=C1C2=C(CC3=C(C2)CS(=O)(=O)C3)C(=O)C2=C1CC1=C(C2)CS(=O)(=O)C1`, the total growth inhibition concentration (TGI) in the assay on OVCAR-5 ovarian was > 78.3 µM; in the assay on SK-OV-3 ovarian, > 73.2 µM; with SF-268 CNS, > 47.7 µM; in the assay on EKVX NSCLC it was > 62.7 µM; in the assay on MDA-MB-231 breast it was 27.3 µM; in the assay on IGROV1 ovarian, 36.5 µM. In addition, the concentration for total growth inhibition (TGI) was > 100 µM in the assay with HCT-15 colon and > 40.8 µM in the assay on KM12 colon.

Turning to `CC(=O)O[C@H]1CC[C@@]2(C)C(=CC[C@@H]3[C@@H]2CC[C@]2(C)c4c(C)nn(-c5ccccc5)c4C[C@@H]32)C1`, the TGI in the assay with OVCAR-5 ovarian is 68.1 µM; in the assay with SK-OV-3 ovarian it was 44.5 µM; in the assay with SF-268 CNS, > 100 µM; in the assay on EKVX NSCLC, 53.7 µM; with MDA-MB-231 breast, 50.6 µM; with IGROV1 ovarian it was > 100 µM. For the same molecule, the figures for the total growth inhibition concentration (TGI) in the assay on HCT-15 colon and in the assay on KM12 colon were > 100 µM and 86.7 µM, respectively.

On to `S=C1CCSc2c(ccc3ccccc23)N1`, for which the TGI in the assay on OVCAR-5 ovarian, in the assay on SK-OV-3 ovarian, in the assay with SF-268 CNS, in the assay with EKVX NSCLC, with MDA-MB-231 breast and in the assay with IGROV1 ovarian was > 100 µM each time. For the same molecule, the TGI with HCT-15 colon and with KM12 colon was > 100 µM throughout.

For `COC(=O)C(Cc1c[nH]c2ccccc12)NC(=O)c1ccc(-c2ccc(Cl)cc2Cl)o1` (stereo not given), the TGI in the assay on OVCAR-5 ovarian, in the assay on SK-OV-3 ovarian, with SF-268 CNS, with EKVX NSCLC, in the assay on MDA-MB-231 breast and in the assay on IGROV1 ovarian was > 100 µM in each case. Besides, the concentration for total growth inhibition (TGI) with HCT-15 colon and in the assay on KM12 colon was > 100 µM throughout.

Regarding `COc1ccc(C2SCC(=O)N2NC(=O)c2ccc(NC(C)=O)cc2)c(OC)c1` (stereo not given), the concentration for total growth inhibition (TGI) in the assay on OVCAR-5 ovarian, in the assay on SK-OV-3 ovarian, in the assay with SF-268 CNS, in the assay on EKVX NSCLC, in the assay with MDA-MB-231 breast and in the assay with IGROV1 ovarian was > 100 µM in each case. Further, the total growth inhibition concentration (TGI) with HCT-15 colon and in the assay on KM12 colon was > 100 µM throughout.

With `COC(=O)c1cc(C(=CCC[C@H]2CC[C@@]3(C)C(CCC4C3CC[C@@]3(C)C4CC[C@@H]3C(C)CCCC(C)C)C2)c2cc(Cl)c(O)c(C(=O)OC)c2)cc(Cl)c1O` (stereo not given in full), the concentration for total growth inhibition (TGI) in the assay on OVCAR-5 ovarian, in the assay with SK-OV-3 ovarian, in the assay on SF-268 CNS, in the assay on EKVX NSCLC, in the assay on MDA-MB-231 breast and in the assay on IGROV1 ovarian was > 10 µM throughout. The TGI in the assay on HCT-15 colon and with KM12 colon was > 10 µM throughout.

In the case of `CS(=O)(=O)c1ccc(N=C/C=C/Nc2ccc(S(C)(=O)=O)cc2)cc1`, the total growth inhibition concentration (TGI) in the assay on OVCAR-5 ovarian, in the assay on SK-OV-3 ovarian, in the assay with SF-268 CNS, in the assay with EKVX NSCLC, with MDA-MB-231 breast and in the assay on IGROV1 ovarian was > 100 µM each time. The TGI in the assay on HCT-15 colon and in the assay with KM12 colon was > 100 µM throughout.

Consider `N#CC(Cc1ccccc1)N(CCC1=CCCCC1)Cc1ccccc1` (stereo not given), for which the concentration for total growth inhibition (TGI) in the assay with OVCAR-5 ovarian, with SK-OV-3 ovarian, with SF-268 CNS, with EKVX NSCLC, in the assay on MDA-MB-231 breast and in the assay on IGROV1 ovarian was > 100 µM throughout. Moreover, the total growth inhibition concentration (TGI) in the assay with HCT-15 colon and in the assay on KM12 colon was > 100 µM throughout.

Turning to `C/C=C(\C)C(O)C(C)C(O)C/C=C(C)/C=C(\C)C/C(C)=C/C/C=C(\C)C(O)C(C)c1ccc(CCC)c(=O)o1` (stereo not given), the TGI with OVCAR-5 ovarian was 37.9 µM; in the assay with SK-OV-3 ovarian, 94.5 µM; in the assay on SF-268 CNS, 37.5 µM; in the assay on EKVX NSCLC it was > 100 µM; in the assay on MDA-MB-231 breast, 26.4 µM; with IGROV1 ovarian, 32.8 µM. Also, the concentration for total growth inhibition (TGI) with HCT-15 colon amounted to 15.3 µM; with KM12 colon it was 23.8 µM.

In the case of `C/C(CC(O)(/C=N/O)c1ccccc1)=N/O` (stereo not given), the concentration for total growth inhibition (TGI) with OVCAR-5 ovarian, with SK-OV-3 ovarian, in the assay on SF-268 CNS, with EKVX NSCLC, in the assay on MDA-MB-231 breast and in the assay on IGROV1 ovarian was > 100 µM throughout. Moreover, the TGI in the assay on HCT-15 colon and in the assay with KM12 colon was > 100 µM each time.

As to `CC(C)[C@H](NC(=O)[C@H](N)Cc1ccc(N(CCCl)CCCl)cc1)C(=O)O`, the concentration for total growth inhibition (TGI) in the assay on OVCAR-5 ovarian, in the assay on SK-OV-3 ovarian, in the assay with SF-268 CNS, in the assay on EKVX NSCLC, in the assay on MDA-MB-231 breast and in the assay on IGROV1 ovarian was > 100 µM throughout. The concentration for total growth inhibition (TGI) with HCT-15 colon and in the assay with KM12 colon was > 100 µM throughout.

As for `CCOC(=O)C1=NN(c2ccc([N+](=O)[O-])cc2)[C@@]2(C)C[C@]3(c4ccccc4)N(c4ccc([N+](=O)[O-])cc4)N=C(C(=O)OCC)N3c3ccccc3N12`, the TGI was > 100 µM in the assay on OVCAR-5 ovarian; > 100 µM in the assay with SK-OV-3 ovarian; > 100 µM with SF-268 CNS; > 100 µM with EKVX NSCLC; 84.4 µM with MDA-MB-231 breast; > 100 µM in the assay on IGROV1 ovarian. Also, the TGI in the assay with HCT-15 colon and in the assay on KM12 colon was > 100 µM each time.

As to `CC(C)=CC(Cc1ccccc1)S(=O)(=O)c1nc2ccccc2s1` (stereo not given), the TGI in the assay with OVCAR-5 ovarian amounted to 36.7 µM; with SK-OV-3 ovarian, 47.5 µM; with SF-268 CNS, 36.5 µM; in the assay with EKVX NSCLC, 41.7 µM; in the assay on MDA-MB-231 breast, 52 µM; in the assay on IGROV1 ovarian, 62.7 µM. The total growth inhibition concentration (TGI) in the assay on HCT-15 colon is 49.5 µM; in the assay on KM12 colon, 35.8 µM.

`NC(=O)NCCCC(NC(=O)OCCCCCCn1ccc(=O)[nH]c1=O)C(=O)O` (stereo not given): the total growth inhibition concentration (TGI) with OVCAR-5 ovarian, with SK-OV-3 ovarian, in the assay with SF-268 CNS, in the assay with EKVX NSCLC, in the assay with MDA-MB-231 breast and in the assay on IGROV1 ovarian was > 100 µM throughout. The concentration for total growth inhibition (TGI) with HCT-15 colon and in the assay with KM12 colon was > 100 µM each time.

With `O=c1c2cc3c(=O)n4c(cc(-c5ccccc5)c5cc(Cl)ccc54)nc3cc2nc2cc(-c3ccccc3)c3cc(Cl)ccc3n12`, the total growth inhibition concentration (TGI) in the assay with OVCAR-5 ovarian, with SK-OV-3 ovarian, with SF-268 CNS, in the assay with EKVX NSCLC, with MDA-MB-231 breast and in the assay with IGROV1 ovarian was > 100 µM each time. Besides, the total growth inhibition concentration (TGI) in the assay with HCT-15 colon and in the assay on KM12 colon was > 100 µM each time.

Values taken from PubChem BioAssay (NCI).
